Laboratory results taken from patent publication US8318708B2, “Use of vitamin D receptor agonists, ligands, and precursors to treat pancreatic fibrosis” (Salk Institute for Biological Studies, priority 2007, dated 2012).
Entries after “also recorded” stand apart in the source; their conditions may differ. Where two headings read alike, the source gives them in different places.

Assays:
primary HSCs [1] = experiment: Illumina array: LPS-treated primary rat HSCs with vitamin D3 or LXR ligand T1317 (Table 3); conditions: co-treatment with LPS; T1317 1 μM, vitamin D3 1 nM
Method: (§2) For Illumina microarray analysis, Illumina TotalPrep RNA Amplification Kit (Ambion; Catalog # IL1791) was used with the manufacturer's instructions for the RNA amplification. […] Essentially, biotinylated cRNA was prepared according to the manufacturer's directions starting with 200 ng total RNA. Hybridization to the Illumina Sentrix RatRef-12 v.1 and Mouse RefSeq version 2 Expression BeadChips (Illumina, Inc., San Diego, Calif.), washing and scanning were performed according to the Illumina BeadStation 500× manual (revision C). […] RNA is isolated using Trizol and the quality/integrity of the total RNA verified using a Bioanalyzer (Agilent).
(§3) Microarray experiments were repeated two times with RNA from two experiments where HSCs were isolated from two different rats and for each condition triplicate samples were used. The “Detection Score” was used to determine expression using the Illumina platform. It is a statistical measure in the BeadStudio software (version 1.5.0.34), which is computed based on the Z-value of a gene relative to the Z-value of the negative controls. The Illumina data were adjusted (“normalized”) using a cubic spline function. […] The expression difference score, DiffScore, takes into account background noise and sample variability. […] Illumina expression arrays utilize gene-specific 50-mer oligonucleotide probes with an average of 30 replicates of each probe bead per individual array.
Isolated primary HSCs were cultured on plastic tissue culture plates for 40 hours prior to treatment with or without vitamin D3 (1 nM) in the presence or absence of 15 ng/ml of LPS for 24 hours. Cells were then harvested, total RNA extracted, and biotin labeled cRNA was prepared for hybridization to Illumina Rat RefSeq version 1 expression arrays. […] The data generated from these arrays was processed using Illumina BeadStudio software to identify gene expression changes between the different samples.

MCD diet model of NASH = experiment: Methionine and choline deficient (MCD) diet model of NASH; format: in vivo, mouse; conditions: mice on MCD diet, 1 IU (25 ng) per gram body weight twice weekly
Source text: The methionine and choline deficient (MCD) diet model of nonalcoholic steatohepatitis (NASH) was originally developed in the mid 1990's to provide a suitable animal model to study the pathogenesis of this common human disease (Weltman et al., 1996. Gastroenterology., 111(6):1645-53). It faithfully reproduces the hepatic steatosis, lobular inflammation and fibrosis progressing over time to more severe fibrosis as observed in the human condition. The mouse version of this model has previously been well characterized and reproducibly mice develop hepatic steatosis, inflammation and extensive perivenular and pericellular fibrosis by 10 weeks.
Male C57black wild-type and the VDR floxed knockout mice are fed ad libitum a high fat, MCD diet (ICN cat no: 960439) for up to 10 weeks. Controls are pair-fed the same diet supplemented with choline chloride (2 g/kg) and DL-methionine (3 g/kg). […]. […] Fibrosis is determined by Sirius Red staining of liver samples. Serum transaminases, lipids and bile acids and liver bile acids are quantified as previously published (Stedman et al., 2006. Proc Natl Acad Sci USA., 103(30):11323-8) and hepatic lipids, glutathione and lipid peroxidation also are analyzed using standard published protocols. Additional tissue portions are snap frozen in liquid nitrogen for later preparation of total RNA for gene expression studies by quantitative PCR and gene arrays.

VDR [2] = target: T1, VDR (Rattus norvegicus, UniProt P13053); experiment: Real-time qPCR of VDR target and vitamin D metabolising genes in primary rat HSCs; format: cell-based; set-up: endogenous in cells; host or cells: primary rat hepatic stellate cells (Sprague-Dawley rats)
T1 sequence (P13053 1-423): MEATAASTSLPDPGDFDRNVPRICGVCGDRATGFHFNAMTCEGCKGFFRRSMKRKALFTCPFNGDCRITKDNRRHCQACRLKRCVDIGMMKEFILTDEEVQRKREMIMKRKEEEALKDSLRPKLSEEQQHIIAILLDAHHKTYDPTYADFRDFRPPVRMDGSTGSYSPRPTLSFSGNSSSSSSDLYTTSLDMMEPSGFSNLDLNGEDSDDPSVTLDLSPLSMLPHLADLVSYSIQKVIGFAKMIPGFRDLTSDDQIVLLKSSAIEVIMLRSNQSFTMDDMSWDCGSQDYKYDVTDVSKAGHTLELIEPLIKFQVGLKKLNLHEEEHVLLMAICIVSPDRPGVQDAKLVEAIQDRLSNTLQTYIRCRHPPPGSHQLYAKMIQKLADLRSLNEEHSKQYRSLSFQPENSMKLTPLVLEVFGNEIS
Method: Activated HSCs were cultured on plastic rather than Matrigel in the same media described above. Kupffer cells (KCs) were cultured in Williams' medium E containing 10% FBS, 2 mM glutamine on plastic plates.
(§1) For qRT-PCR, 500 ng of deoxyribonuclease-treated total RNA was reverse transcribed into cDNA using SuperScript™ III reverse transcriptase essentially as described by the manufacturer (Invitrogen). Quantification of gene of interest mRNA was performed using a Rotor-Gene, RG 6000 (Corbett Research). […] Human B2M primers were from Applied Biosystems.

[3] = tested on: CCl4-induced liver fibrosis; experiment: CCl4-induced liver fibrosis model; format: in vivo, mouse
Source text: . The CCl4 model of chronic liver injury and fibrosis is a well established model of liver injury, inflammation, fibrosis and cirrhosis where CCL4 is metabolized in the liver by CYP2E to a trichloromethyl free radical, which reacts with oxygen to produces a highly reactive peroxytrichloromethyl radical that initiates a damaging cycle of lipid membrane peroxidation and cell death (Leclercq et al., 2001. J. Gastroenterology and Hepatol., 24:51-59). With iterative injury (3 months in mice), extensive scarring develops as indicated by transdifferentiation of HSCs into myofibroblasts, intense myofibroblast proliferation and progressive laying down of ECM components. Following cessation of CCl4 injections, the scarring resolves completely (Kanzler et al., 1999. Am J Physiol., 276(4 Pt 1):G1059-68). These distinct phases of injury, repair, and resolution make this an ideal model for studying both injury and repair mechanisms.
Eight week-old C57BL6 mice were injected with 2 ml/kg body weight of CCl4 i.p. (1:1 v/v in corn oil) or vehicle alone twice weekly for 4 to 12 weeks. Specifically, groups of mice (n=8 per group per time point) are sacrificed at 48 hours (acute injury), 4, 8 and 12 weeks. The animals were terminated after a period of 72 hours after the final CCl4 injection and whole liver, intestine and serum were collected for histological, cytological, biochemical and molecular analyses. […]. Control mice received vehicle alone.
Twice weekly administration of CCl4 for […] caused sustained hepatocyte damage as evidenced by significant increases in serum ALT levels and marked histological changes in liver sections stained with hematoxylin and eosin. Serum ALT, AST and triglyceride (TG) and hepatic lipid peroxides (by TBARs) and TG were measured biochemically. Liver histology was scored blindly by a histopathologist using the Brunt system to determine levels of steatosis and inflammation. Expression levels of key genes involved in BA (Sult2a1) and cholesterol metabolism, transport (Bsep, Ntcp, Mdr1&2, Mrp2&3, Oatp1, 2&4), and synthesis (Srebp2, Cyp7a1) and the NXRs (Lxr, Car, Pxr & Fxr) regulating these genes were determined by real-time quantitative PCR (QPCR) with results normalized to […] (B2M). Protein expression was examined in a select number of genes by Western blotting. Statistical analysis was completed on SPSS v14 using Kruschal Wallis H and Mann-Whitney U tests with p<0.05 considered significant

VDR [4] = target: T1, VDR; conditions: rat SECs, FIG. 11A
VDR [5] = target: T2, VDR (Homo sapiens, UniProt P11473); experiment: Real-time qPCR of CYP24A1 in human LX-2 cell line; format: cell-based
T2 construct: endogenous in cells; host or cells: human LX-2 hepatic stellate cell line
T2 sequence (P11473 1-427): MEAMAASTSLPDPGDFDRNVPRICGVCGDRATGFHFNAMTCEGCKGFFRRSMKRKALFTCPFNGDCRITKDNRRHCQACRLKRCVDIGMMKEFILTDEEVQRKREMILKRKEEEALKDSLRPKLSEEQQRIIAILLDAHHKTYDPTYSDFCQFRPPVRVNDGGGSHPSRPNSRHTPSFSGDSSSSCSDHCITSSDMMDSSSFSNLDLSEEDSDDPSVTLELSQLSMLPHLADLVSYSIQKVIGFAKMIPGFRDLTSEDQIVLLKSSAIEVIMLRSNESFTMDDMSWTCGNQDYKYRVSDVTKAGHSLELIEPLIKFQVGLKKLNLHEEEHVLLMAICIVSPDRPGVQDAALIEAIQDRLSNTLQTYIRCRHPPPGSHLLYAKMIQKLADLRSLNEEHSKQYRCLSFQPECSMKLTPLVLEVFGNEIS
Method: Human LX-2 cells were grown to 50% confluence in DMEM with 10% FBS in 6-Well plates.
as §1
TGFβ signaling is the key mediator in hepatic fibrogenesis, triggering the transition of HSCs into myofibroblast-like cells and thereby stimulating synthesis of ECM proteins. Thus, TGFβ1 is produced locally in the organ as part of the fibrotic process It has been previously reported that TGFB signaling can influence the activity of VDR-dependent genes, as depicted in (FIG. 8A). In this model, TGFβ activation results in SMAD3 phosphorylation, inducing its translocation into the nucleus where it associates with the ligand bound VDR complex. Phosphorylated SMAD3 acts as a co-activator in the VDR/vitaminD3 complex enhancing the transcriptional potential of VDR on target genes. To understand the interplay between TGFB and VDR signaling pathways, the effects of TGFβ on the well characterized VDR gene target Cyp24α1 were examined.

[6] = cited from earlier work
VDR [7] = target: T1, VDR; conditions: rat Kupffer cells, FIG. 11B
primary HSCs [8] = experiment: Illumina array: TGFβ1-treated primary rat HSCs with vitamin D3 (Table 4); conditions: co-treatment with TGFβ1 100 pM, vitamin D3 1 nM, 24 h
Method: as §2, §3
The Illumina platform described above was used to identify genome-wide effects of vitamin D3-activated VDR on TGFβ signaling in primary rat HSCs. Isolated primary HSCs were cultured on plastic tissue culture plates for 40 hours prior to treatment with or without vitamin D3 (1 nM) in the presence or absence of TGFβ1 (100 pM) for 24 hours. Cells were then harvested, total RNA extracted, and biotin labeled cRNA was prepared for hybridization to an Illumina Rat RefSeq version 1 genome array. […] The data generated from these arrays was processed using Illumina BeadStudio software to identify gene expression changes between the different samples. The vitamin D3 mediated changes on TGFβ1 signaling were identified by comparing TGFβ1 and co-treated TGFβ1/vitamin D3 samples.

Compound | Expression of neutrophil and monocyte attractants (primary HSCs [1]) | Gene induction of the interleukins IL-10 and 6 (primary HSCs [1]) | Production of inflammatory and fibrogenic markers (MCD diet model of NASH) | CYP24A1 expression (VDR [2]; 100 nM (10-fold higher dose), culture activated HSCs, listed as 25(OH) vitamin D3, monohydrate) | Concentration giving maximal induction of CYP24A1 (VDR [2]; day 2 HSCs) | Decrease of IL-α expression ([3]; liver, CCl4 mice) | Decrease of MCP-1 expression ([3]; liver, CCl4 mice) | Decrease of TGFβ1 expression ([3]; liver, CCl4 mice) | TNF-α induction ([3]; liver, CCl4 mice) | Production of inflammatory and fibrogenic markers ([3]; mice, CCl4, 1 IU (25 ng) per gram body weight twice weekly, FIG. 9) | VDR activation (Cyp24a1 mRNA expression) (VDR [4]) | Concentration giving maximal enhancement of CYP24A1 (VDR [5]; LX-2 cells, day 2) | CYP24A1 expression (VDR [5]; culture activated (day 7) LX-2 cells) | Levels associated with changes in calcium homeostasis ([6]; isolated reports) | Serum calcidiol with no evidence of adverse effects ([6]; requiring a supply of 250 μg (10,000 IU)) | VDR activation (Cyp24a1 mRNA expression) (VDR [7]) | Induction of all collagen genes by TGFβ (primary HSCs [8]) | Repression of MMP10 by TGFβ (primary HSCs [8])
O=S(=O)(c1ccccc1)N(CC(F)(F)F)c1ccc(C(O)(C(F)(F)F)C(F)(F)F)cc1 [T1317] | relatively few changes | markedly decreased |  |  |  |  |  |  |  |  |  |  |  |  |  |  |  | 
C=C1CC[C@H](O)C/C1=C/C=C1\CCC[C@]2(C)[C@@H]([C@H](C)CCCC(C)(C)O)CC[C@@H]12 [calcidiol, (5Z,7E)-9,10-Secocholesta-5,7,10(19)-triene-3β,25-diol monohydrate] |  |  | reduced | moderately increasing; also recorded: barely induced | 10 nM | about 50% | about 50% | about 50% | no induction | significantly reduced | also activated | 100 nM | barely induced | exceeding 500 nmol/l | < 140 nmol/L | also activated |  | 
C=C1CC[C@H](O)C/C1=C/C=C1\CCC[C@]2(C)[C@@H]([C@H](C)CCCC(C)C)CC[C@@H]12 [vitamin D3, reference compound] | preferentially repressed | did not alter |  |  |  |  |  |  |  |  |  |  |  |  |  |  | markedly decreased | inhibited
